These results are taken from US20250282799A1, “SUBSTITUTED PYRIDO[4,3-d]PYRIMIDINES AS KRAS MODULATORS” (Alterome Therapeutics, Inc., priority 2023, published 2025).

The IC50 is the point on the concentration scale where inhibition reaches its midpoint. A lower IC50 goes with greater potency.

The structures appear in SMILES notation.

The first test has as its system KRAS G12V dependent lung adenocarcinoma cell line, NCI-H441. As to the kind of experiment: Cellular pERK (Thr202/Tyr204) FRET/HTRF assay. It is filed as cell-based. Particulars: Homo sapiens, NCI-H441, cellular pERK (Thr202/Tyr204) HTRF, NCI-H441 cells. In outline:
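NCI-H441 cells (KRAS G12V) plated overnight at 37 °C, then exposed to compounds for 1 hr at 37 °C, 5% CO2; DMSO as negative control. Lysates read by Eu-cryptate/d2 sandwich FRET (665 nm) for ERK1/2 phosphorylated at Thr202/Tyr204; IC50 from curve fit.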
`[2H]C([2H])(Oc1nc(N2CCC=C[C@H]3[C@H](F)[C@H]32)c2cnc(-c3cc(N)cc4cc(F)c(F)c(C#C)c34)c(F)c2n1)[C@@]12CCCN1C[C@H](F)C2` [Example 94, 5-ethynyl-6,7-difluoro-4-(8-fluoro-4-((1S,7R,8S)-8-fluoro-2-azabicyclo[5.1.0]oct-5-en-2-yl)-2-(((2R,7aS)-2-fluorotetrahydro-1H-pyrrolizin-7a(5H)-yl)methoxy-d2)pyrido[4,3-d]pyrimidin-7-yl)naphthalen-2-amine] showed an IC50 of less than 50 nM.

The same test, now with this note: Homo sapiens, NCI-H441, pERK HTRF, NCI-H441 cells (KRAS G12V).
As to `[2H]C([2H])(Oc1nc(N2CCCC[C@H]3[C@H](F)[C@H]32)c2cnc(-c3cccc4ccc(F)c(OCF)c34)c(F)c2n1)[C@@]12CCCN1C[C@H](F)C2` [Example 73, 8-Fluoro-7-(7-fluoro-8-(fluoromethoxy)naphthalen-1-yl)-4-((1S,7R,8S)-8-fluoro-2-azabicyclo[5.1.0]octan-2-yl)-2-(((2R,7aS)-2-fluorotetrahydro-1H-pyrrolizin-7a(5H)-yl)methoxy-d2)pyrido[4,3-d]pyrimidine], the IC50 is less than 50 nM.

As for `[2H]C([2H])([2H])Oc1c(F)c(F)cc2cc(N)cc(-c3ncc4c(N5CCCO[C@H]6[C@H](F)[C@H]65)nc(OC([2H])([2H])[C@@]56CCCN5C[C@H](F)C6)nc4c3F)c12` [Example 74, 6,7-Difluoro-4-(8-fluoro-4-((1R,7S,8R)-8-fluoro-2-oxa-6-azabicyclo[5.1.0]octan-6-yl)-2-(((2R,7aS)-2-fluorotetrahydro-1H-pyrrolizin-7a(5H)-yl)methoxy-d2)pyrido[4,3-d]pyrimidin-7-yl)-5-(methoxy-d3)naphthalen-2-amine], the IC50 is less than 50 nM. In turn, `[2H]C([2H])(Oc1nc(N2CCCO[C@H]3[C@H](F)[C@H]32)c2cnc(-c3cccc4ccc(F)c(C#C)c34)c(F)c2n1)[C@@]12CCCN1C[C@H](F)C2` [Example 75, (1R,7S,8R)-6-(7-(8-Ethynyl-7-fluoronaphthalen-1-yl)-8-fluoro-2-(((2R,7aS)-2-fluorotetrahydro-1H-pyrrolizin-7a(5H)-yl)methoxy-d2)pyrido[4,3-d]pyrimidin-4-yl)-8-fluoro-2-oxa-6-azabicyclo[5.1.0]octane] returned a concentration for half-maximal inhibition (IC50) of less than 50 nM.

`[2H]C([2H])(Oc1nc(N2CCCO[C@H]3[C@H](F)[C@H]32)c2cnc(-c3cccc4cc(F)c(F)c(C#C)c34)c(F)c2n1)[C@@]12CCCN1C[C@H](F)C2` [Example 76, (1R,7S,8R)-6-(7-(8-Ethynyl-6,7-difluoronaphthalen-1-yl)-8-fluoro-2-(((2R,7aS)-2-fluorotetrahydro-1H-pyrrolizin-7a(5H)-yl)methoxy-d2)pyrido[4,3-d]pyrimidin-4-yl)-8-fluoro-2-oxa-6-azabicyclo[5.1.0]octane] yielded an IC50 of less than 50 nM. Still for that read-out and setting: in the case of `[2H]C([2H])([2H])Oc1c(F)c(F)c(F)c2cc(N)cc(-c3ncc4c(N5CCCO[C@H]6[C@H](F)[C@H]65)nc(OC([2H])([2H])[C@@]56CCCN5C[C@H](F)C6)nc4c3F)c12` [Example 77, 6,7,8-Trifluoro-4-(8-fluoro-4-((1R,7S,8R)-8-fluoro-2-oxa-6-azabicyclo[5.1.0]octan-6-yl)-2-(((2R,7aS)-2-fluorotetrahydro-1H-pyrrolizin-7a(5H)-yl)methoxy-d2)pyrido[4,3-d]pyrimidin-7-yl)-5-(methoxy-d3)naphthalen-2-amine] it was less than 50 nM.

For `[2H]C([2H])(Oc1nc(N2CCCC[C@H]3[C@H](F)[C@H]32)c2cnc(-c3cccc4ccc(F)c(C#C)c34)c(F)c2n1)[C@@]12CCCN1C[C@H](F)C2` [Example 78, 7-(8-Ethynyl-7-fluoronaphthalen-1-yl)-8-fluoro-4-((1S,7R,8S)-8-fluoro-2-azabicyclo[5.1.0]octan-2-yl)-2-(((2R,7aS)-2-fluorotetrahydro-1H-pyrrolizin-7a(5H)-yl)methoxy-d2)pyrido[4,3-d]pyrimidine], the IC50 is less than 50 nM. The same measure, in the same setting: as for `[2H]C([2H])(Oc1nc(N2CCCC[C@H]3[C@H](F)[C@H]32)c2cnc(-c3cccc4cc(F)c(F)c(C#C)c34)c(F)c2n1)[C@@]12CCCN1C[C@H](F)C2` [Example 79, 7-(8-Ethynyl-6,7-difluoronaphthalen-1-yl)-8-fluoro-4-((1S,7R,8S)-8-fluoro-2-azabicyclo[5.1.0]octan-2-yl)-2-(((2R,7aS)-2-fluorotetrahydro-1H-pyrrolizin-7a(5H)-yl)methoxy-d2)pyrido[4,3-d]pyrimidine], the figure is less than 50 nM. In turn, `[2H]C([2H])(F)Oc1c(F)ccc2cccc(-c3ncc4c(N5CCOC[C@H]6[C@H](F)[C@H]65)nc(OC([2H])([2H])[C@@]56CCCN5C[C@H](F)C6)nc4c3F)c12` [Example 80, (1S,7S,8S)-8-Fluoro-2-(8-fluoro-7-(7-fluoro-8-(fluoromethoxy-d2)naphthalen-1-yl)-2-(((2R,7aS)-2-fluorotetrahydro-1H-pyrrolizin-7a(5H)-yl)methoxy-d2)pyrido[4,3-d]pyrimidin-4-yl)-5-oxa-2-azabicyclo[5.1.0]octane] had an IC50 of less than 50 nM.

Take `[2H]C([2H])([2H])Oc1c(C#N)ccc2cc(N)cc(-c3ncc4c(N5CCOC[C@H]6[C@H](F)[C@H]65)nc(OC([2H])([2H])[C@@]56CCCN5C[C@H](F)C6)nc4c3F)c12` [Example 81, 6-Amino-8-(8-fluoro-4-((1S,7S,8S)-8-fluoro-5-oxa-2-azabicyclo[5.1.0]octan-2-yl)-2-(((2R,7aS)-2-fluorotetrahydro-1H-pyrrolizin-7a(5H)-yl)methoxy-d2)pyrido[4,3-d]pyrimidin-7-yl)-1-(methoxy-d3)-2-naphthonitrile]: the IC50 is less than 50 nM. The compound `[2H]C([2H])(Oc1nc(N2CCCC[C@H]3[C@H](F)[C@H]32)c2cnc(-c3cncc4cc(F)c(F)c(OC)c34)c(F)c2n1)[C@@]12CCCN1C[C@H](F)C2` [Example 83, 7-(6,7-Difluoro-5-methoxyisoquinolin-4-yl)-8-fluoro-4-((1S,7R,8S)-8-fluoro-2-azabicyclo[5.1.0]octan-2-yl)-2-(((2R,7aS)-2-fluorotetrahydro-1H-pyrrolizin-7a(5H)-yl)methoxy-d2)pyrido[4,3-d]pyrimidine] yielded an IC50 of 50 to 500 nM. `[2H]C([2H])(Oc1nc(N2CCCC[C@H]3[C@H](F)[C@H]32)c2cnc(-c3cncc4ccc(F)c(Cl)c34)c(F)c2n1)[C@@]12CCCN1C[C@H](F)C2` [Example 85, 7-(5-Chloro-6-fluoroisoquinolin-4-yl)-8-fluoro-4-((1S,7R,8S)-8-fluoro-2-azabicyclo[5.1.0]octan-2-yl)-2-(((2R,7aS)-2-fluorotetrahydro-1H-pyrrolizin-7a(5H)-yl)methoxy-d2)pyrido[4,3-d]pyrimidine] registered an IC50 of 50 to 500 nM.

In the case of `[2H]C([2H])([2H])Oc1c(F)ccc2cccc(-c3ncc4c(N5CCCO[C@H]6[C@H](F)[C@H]65)nc(OC([2H])([2H])[C@@]56CCCN5C[C@H](F)C6)nc4c3F)c12` [Example 86, (1R,7S,8R)-8-Fluoro-6-(8-fluoro-7-(7-fluoro-8-(methoxy-d3)naphthalen-1-yl)-2-(((2R,7aS)-2-fluorotetrahydro-1H-pyrrolizin-7a(5H)-yl)methoxy-d2)pyrido[4,3-d]pyrimidin-4-yl)-2-oxa-6-azabicyclo[5.1.0]octane], the IC50 was less than 50 nM. `[2H]C([2H])(F)Oc1c(F)c(F)cc2cc(N)cc(-c3ncc4c(N5CCOC[C@H]6[C@H](F)[C@H]65)nc(OC([2H])([2H])[C@@]56CCCN5C[C@H](F)C6)nc4c3F)c12` [Example 88, 6,7-Difluoro-4-(8-fluoro-4-((1S,7S,8S)-8-fluoro-5-oxa-2-azabicyclo[5.1.0]octan-2-yl)-2-(((2R,7aS)-2-fluorotetrahydro-1H-pyrrolizin-7a(5H)-yl)methoxy-d2)pyrido[4,3-d]pyrimidin-7-yl)-5-(fluoromethoxy-d2)naphthalen-2-amine] registered a half-maximal inhibitory concentration (IC50) of less than 50 nM. As to `[2H]C([2H])(Oc1nc(N2CCCO[C@H]3[C@H](F)[C@H]32)c2cnc(-c3cccc4ccc(F)c(OCF)c34)c(F)c2n1)[C@@]12CCCN1C[C@H](F)C2` [Example 92, (1R,7S,8R)-8-Fluoro-6-(8-fluoro-7-(7-fluoro-8-(fluoromethoxy)naphthalen-1-yl)-2-(((2R,7aS)-2-fluorotetrahydro-1H-pyrrolizin-7a(5H)-yl)methoxy-d2)pyrido[4,3-d]pyrimidin-4-yl)-2-oxa-6-azabicyclo[5.1.0]octane], the IC50 was less than 50 nM. Compound `[2H]C([2H])(Oc1nc(N2CCOC[C@H]3[C@H](F)[C@H]32)c2cnc(-c3cc(N)cc4c(F)c(F)c(F)c(C#C)c34)c(F)c2n1)[C@@]12CCCN1C[C@H](F)C2` [Example 93, 5-Ethynyl-6,7,8-trifluoro-4-(8-fluoro-4-((1S,7S,8S)-8-fluoro-5-oxa-2-azabicyclo[5.1.0]octan-2-yl)-2-(((2R,7aS)-2-fluorotetrahydro-1H-pyrrolizin-7a(5H)-yl)methoxy-d2)pyrido[4,3-d]pyrimidin-7-yl)naphthalen-2-amine] displayed an IC50 of less than 50 nM.

The test is the same for the next values; noted with them: Homo sapiens; pERK HTRF, NCI-H441 cells (KRAS G12V).
Compound `[2H]C([2H])([2H])Oc1c(F)ccc2cncc(-c3ncc4c(N5CCOC[C@H]6[C@H](F)[C@H]65)nc(OC([2H])([2H])[C@@]56CCCN5C[C@H](F)C6)nc4c3F)c12` [Example 84, (1S,7S,8S)-8-Fluoro-2-(8-fluoro-7-(6-fluoro-5-(methoxy-d3)isoquinolin-4-yl)-2-(((2R,7aS)-2-fluorotetrahydro-1H-pyrrolizin-7a(5H)-yl)methoxy-d2)pyrido[4,3-d]pyrimidin-4-yl)-5-oxa-2-azabicyclo[5.1.0]octane] displayed an IC50 of less than 50 nM.
